Like-named read-outs stand apart in the source and are kept apart here.
Test: Single dose PK in healthy subjects (Cohorts 1, 2, S1 and S2), plasma
Format: in vivo, human
Details: human, plasma, iv, healthy subjects
Method: This study investigates (i) the safety and tolerability of Compound A (methyl (2R,3S)-3-((methylsulfonyl)amino)-2-(((cis-4-phenylcyclohexyl)oxy)methyl)piperidine-1-carboxylate) when a single dose given as a 9 hour continuous IV infusion is administered to healthy adults, healthy elderly subjects and patients with narcolepsy type 1 (NT1); (ii) the pharmacokinetics of Compound A when a single dose given as a 9 hour continuous IV infusion is administered to healthy adults, healthy elderly subjects and patients with narcolepsy type 1; and (iii) the pharmacodynamics (PD) effects of Compound A, primarily by evaluation of the sleep latency on MWT when a single dose given as a 9 hour continuous IV infusion is administered to patients with narcolepsy type 1.
Pharmacokinetics: Concentrations of Compound A in plasma, and CSF, and pharmacokinetics parameters.
On average, the time to reach the plateau appeared to be approximately 3 to 4 hours after the start of infusion. […] After switching off the IV infusion, Compound A plasma concentrations declined rapidly and in a biphasic manner with a mean terminal disposition phase t1/2z ranging approximately from 3.4 to 5.1 hours across all doses. […] Table 5 provides a summary of plasma concentrations of Compound A after a single IV infusion in healthy subjects. Table 6 provides a summary of pharmacokinetic parameters of Compound A after a single IV infusion in healthy subjects.

`COC(=O)N1CCC[C@H](NS(C)(=O)=O)[C@@H]1CO[C@H]1CC[C@@H](c2ccccc2)CC1` [Compound A, methyl (2R,3S)-3-((methylsulfonyl)amino)-2-(((cis-4-phenylcyclohexyl)oxy)methyl)piperidine-1-carboxylate] showed a Cmax (134.4 mg, 134.4 mg single IV infusion, read-out: Cmax Geo Mean) of 305 ng/mL, a Cmax (134.4 mg, 134.4 mg single IV infusion, read-out: Cmax Mean) of 308 ng/mL and a Cmax (134.4 mg, 134.4 mg single IV infusion, read-out: Cmax Median) of 314 ng/mL. The Vd (134.4 mg, 134.4 mg single IV infusion, read-out: Vss Mean) was 88.5 L, the Vd (134.4 mg, 134.4 mg single IV infusion, read-out: Vss Median) was 87 L and the Vd (134.4 mg, 134.4 mg single IV infusion, read-out: Vz Mean) was 285 L. It also gave a Vd (134.4 mg, 134.4 mg single IV infusion, read-out: Vz Median) of 276 L, a Tmax (134.4 mg, 134.4 mg single IV infusion, read-out: tmax Mean) of 6.33 h and a Tmax (134.4 mg, 134.4 mg single IV infusion, read-out: tmax Median) of 6.5 h. It also gave an AUC (180 mg, 180 mg single IV infusion, read-out: AUC24 Geo Mean) of 2990 ng·h/mL, an AUC (180 mg, 180 mg single IV infusion, read-out: AUC24 Mean) of 3000 ng·h/mL and an AUC (180 mg, 180 mg single IV infusion, read-out: AUC24 Median) of 3040 ng·h/mL. The AUC(0-inf) (180 mg, 180 mg single IV infusion, read-out: AUCinf Geo Mean) was 3010 ng·h/mL, the AUC(0-inf) (180 mg, 180 mg single IV infusion, read-out: AUCinf Mean) was 3020 ng·h/mL and the AUC(0-inf) (180 mg, 180 mg single IV infusion, read-out: AUCinf Median) was 3050 ng·h/mL. For the same compound, the AUC(0-t) (180 mg, 180 mg single IV infusion, read-out: AUClast Geo Mean) was 2990 ng·h/mL, the AUC(0-t) (180 mg, 180 mg single IV infusion, read-out: AUClast Mean) was 3000 ng·h/mL and the AUC(0-t) (180 mg, 180 mg single IV infusion, read-out: AUClast Median) was 3040 ng·h/mL. The clearance (180 mg, 180 mg single IV infusion, read-out: CL Mean (converted)) was 997 mL/min, the clearance (180 mg, 180 mg single IV infusion, read-out: CL Median (converted)) was 985 mL/min and the concentration at 9 h (180 mg, 180 mg single IV infusion, read-out: Ceoi Geo Mean) was 324 ng/mL. For the same compound, the concentration at 9 h (180 mg, 180 mg single IV infusion, read-out: Ceoi Mean) was 325 ng/mL, the concentration at 9 h (180 mg, 180 mg single IV infusion, read-out: Ceoi Median) was 316 ng/mL and the Cmax (180 mg, 180 mg single IV infusion, read-out: Cmax Geo Mean) was 344 ng/mL. For the same compound, the Cmax (180 mg, 180 mg single IV infusion, read-out: Cmax Mean) was 345 ng/mL, the Cmax (180 mg, 180 mg single IV infusion, read-out: Cmax Median) was 358 ng/mL and the Vd (180 mg, 180 mg single IV infusion, read-out: Vss Mean) was 90.8 L. For the same compound, the Vd (180 mg, 180 mg single IV infusion, read-out: Vss Median) was 81.5 L, the Vd (180 mg, 180 mg single IV infusion, read-out: Vz Mean) was 291 L and the Vd (180 mg, 180 mg single IV infusion, read-out: Vz Median) was 268 L. It also gave a Tmax (180 mg, 180 mg single IV infusion, read-out: tmax Mean) of 6.33 h, a Tmax (180 mg, 180 mg single IV infusion, read-out: tmax Median) of 6.5 h and an AUC (240 mg, 240 mg single IV infusion, read-out: AUC24 Geo Mean) of 4540 ng·h/mL. For the same compound, the AUC (240 mg, 240 mg single IV infusion, read-out: AUC24 Mean) was 4580 ng·h/mL, the AUC (240 mg, 240 mg single IV infusion, read-out: AUC24 Median) was 4400 ng·h/mL and the AUC(0-inf) (240 mg, 240 mg single IV infusion, read-out: AUCinf Geo Mean) was 4580 ng·h/mL. The AUC(0-inf) (240 mg, 240 mg single IV infusion, read-out: AUCinf Mean) was 4630 ng·h/mL, the AUC(0-inf) (240 mg, 240 mg single IV infusion, read-out: AUCinf Median) was 4430 ng·h/mL and the AUC(0-t) (240 mg, 240 mg single IV infusion, read-out: AUClast Geo Mean) was 4540 ng·h/mL. It also gave an AUC(0-t) (240 mg, 240 mg single IV infusion, read-out: AUClast Mean) of 4580 ng·h/mL, an AUC(0-t) (240 mg, 240 mg single IV infusion, read-out: AUClast Median) of 4400 ng·h/mL and a clearance (240 mg, 240 mg single IV infusion, read-out: CL Mean (converted)) of 880 mL/min. For the same compound, the clearance (240 mg, 240 mg single IV infusion, read-out: CL Median (converted)) was 906 mL/min, the concentration at 9 h (240 mg, 240 mg single IV infusion, read-out: Ceoi Geo Mean) was 493 ng/mL and the concentration at 9 h (240 mg, 240 mg single IV infusion, read-out: Ceoi Mean) was 497 ng/mL. The concentration at 9 h (240 mg, 240 mg single IV infusion, read-out: Ceoi Median) was 481 ng/mL, the Cmax (240 mg, 240 mg single IV infusion, read-out: Cmax Geo Mean) was 506 ng/mL and the Cmax (240 mg, 240 mg single IV infusion, read-out: Cmax Mean) was 512 ng/mL. For the same compound, the Cmax (240 mg, 240 mg single IV infusion, read-out: Cmax Median) was 483 ng/mL and the Vd (240 mg, 240 mg single IV infusion, read-out: Vss Mean) was 97.5 L.
